Broadly, the EC50 is the concentration giving half of the maximal effect.

The source of these data is patent US20050215543A1, “Methods of treating HIV infection” (priority 2004, published 2005).

In one data set the test system is HIV-1 Bal. Briefly: Drug susceptibility assay, PM-1 cells infected with HIV-1 Bal, p24 assay readout (combinations with CCR5 inhibitors). The data set is classed as cell-based. To be noted: for Combination Indices at % HIV Inhibition (Confidence Interval) 50%: 50% HIV inhibition; for Combination Indices at % HIV Inhibition (Confidence Interval) 50% / Combination Indices at % HIV Inhibition (Confidence Interval) 75% / Combination Indices at % HIV Inhibition (Confidence Interval) 90% / Overall Result: PM-1/HIV-1 Bal; for Combination Indices at % HIV Inhibition (Confidence Interval) 50% / Combination Indices at % HIV Inhibition (Confidence Interval) 75% / Combination Indices at % HIV Inhibition (Confidence Interval) 90%: p24, 95% CI in parenthesis; for Combination Indices at % HIV Inhibition (Confidence Interval) 75%: 75% HIV inhibition; for Combination Indices at % HIV Inhibition (Confidence Interval) 90%: 90% HIV inhibition; for EC50: single drug, PM-1 cells, HIV-1 Bal, MOI 0.005, 6 days, p24 assay (CCR5 inhibitors); for Overall Result: two-drug combination with Compound 1, all ratios and effect levels, p24 assay. As to the method:
(§1) Virus and cell lines. The T-cell lines, MT-2 and PM-1 were obtained through the AIDS Research and Reference Reagent Program, NIAID, and were contributed by Dr. D. Richman and Dr. R. Gallo, respectively. Both cell lines were cultured in RPMI 1640 medium supplemented with 10% fetal bovine serum, 2 mM L-glutamine and sub-cultured twice a week. The LAI strain of HIV-1 was obtained from the Fred Hutchinson Cancer Research Center, and the Bal strain was from NIH. Both virus stocks were amplified and titered in MT-2 cells (LAI) and PM-1 cells (Bal) using a virus infectivity assay.
(§2) Drug Susceptibility and Cytotoxicity Assays. For drug susceptibility assays, MT-2 cells were infected with HIV-1 LAI (or PM-1 cells with HIV-1 Bal) at an MOI of 0.005, and seeded into 96-well microtiter plates (0.1×10^6 cells/ml) containing serial dilutions of test compounds. […] Each drug ratio consisted of an array of 3-fold serial dilutions, and was performed in quadruplicate. The plates were incubated at 37° C./5% CO2. The MT-2 cells infected with HIV-1 LAI were incubated for 5 days. On day-five post-infection, 20 μl from each well was harvested and quantitated by a reverse transcriptase (RT) assay, or in samples involving non-nucleoside RT inhibitors, an MTS assay. The PM-1 cells infected with HIV-1 Bal and used for studying the combinations with CCR5 inhibitors were incubated for six days. On day-six post-infection, 20 μl from each well was harvested, 20- and 50-fold diluted and quantitated by p24 assay. Cytotoxicity assays were performed using uninfected cells, exposed to the same drug combinations, and incubated for six days. Cell viability was determined by an XTT assay. The CC50 values were calculated by using the exponential form of the median effect equation as mentioned below for calculation of EC50.
(§3) Analysis of Drug Combination Effects. For determination of CI values, drugs were diluted in a fixed ratio and multiple ratios were analyzed. The drug serial dilutions spanned a range of concentrations near the EC50 value of each compound, so that equivalent antiviral activities could be compared. Concentration-response curves were estimated for each individual drug and every combination using the median-effect equation. The equation was fit using a nonlinear regression routine (Proc Nlin) in PC SAS version 8.01 (SAS Institute Inc., SAS Version 8.01, Cary, N.C.: SAS Institute Inc., 1990).
(§4) In this equation, Fa stands for “fraction affected,” and represents the fraction of the viral load that has been inactivated. […] ED50 is drug concentration that is expected to reduce the amount of virus by 50%, and m is a parameter that reflects the slope of the concentration-response curve.
(§5) To assess antiviral effects of different drug combination treatments, combination indices (CIs) were calculated according to Chou and Rideout. The combination index was computed as CI=[D]1/[Dm]1+[D]2/[Dm]2
(§6) In this equation [Dm]1 and [Dm]2 are the concentrations of drugs that would individually produce a specific level of effect, while [D]1 and [D]2 are the concentrations of drugs in combination that would produce the same level of effect.
(§7) Theoretically, additivity is implied if the CI is equal to one, synergy if the CI is less than one, and antagonism if the CI is greater than one. […] At best, we can construct a range that contains the likely values for the CI, given the noise in the data. In this report, these ranges are reported in parentheses next to each point estimate of the CI. […] If the range fell entirely above 1.0, we would infer antagonistic behavior. If the range were to include 1.0, we would infer additivity.
(§8) In carrying out the combination experiments below, the EC50 for Compound 1 and each comparator compound was determined during the course of each study, and used in the subsequent data analysis.

Data set [1] relates to HIV-1 LAI. Put plainly: microbe, parasite or virus in culture. To be noted: for Combination Indices at % HIV Inhibition (Confidence Interval) 50%: 50% HIV inhibition; for Combination Indices at % HIV Inhibition (Confidence Interval) 50% / Combination Indices at % HIV Inhibition (Confidence Interval) 75% / Combination Indices at % HIV Inhibition (Confidence Interval) 90%: 95% CI in parenthesis; for Combination Indices at % HIV Inhibition (Confidence Interval) 75%: 75% HIV inhibition; for Combination Indices at % HIV Inhibition (Confidence Interval) 90%: 90% HIV inhibition.

For another data set, the system named is uninfected cells. Briefly: Cytotoxicity assay of drug combinations, uninfected cells, XTT assay. The data set is classed as cell-based. The following applies: combination with Compound 1 at the highest concentrations tested, 6 days. As to the method: as §2, with “Assays.” for “Assays. For drug susceptibility assays, MT-2 cells were infected with HIV-1 LAI (or PM-1 cells with HIV-1 Bal) at an MOI of 0.005, and seeded into 96-well microtiter plates (0.1×10^6 cells/ml) containing serial dilutions of test compounds.”, “The MT-2 cells infected with HIV-1 LAI were incubated for 5 days.” left out
On the technique in general: Tetrazolium assays rely on reduction of a dye to a coloured formazan, in cell work by metabolically active cells.

Data set [2] deals with HIV-1 LAI. Briefly: Drug susceptibility assay, MT-2 cells infected with HIV-1 LAI, MTS assay readout (samples involving non-nucleoside RT inhibitors). The data set is classed as cell-based. To be noted: for Combination Indices at % HIV Inhibition (Confidence Interval) 50%: 50% HIV inhibition; for Combination Indices at % HIV Inhibition (Confidence Interval) 50% / Combination Indices at % HIV Inhibition (Confidence Interval) 75% / Combination Indices at % HIV Inhibition (Confidence Interval) 90%: MTS readout, 95% CI in parenthesis; for Combination Indices at % HIV Inhibition (Confidence Interval) 75%: 75% HIV inhibition; for Combination Indices at % HIV Inhibition (Confidence Interval) 90%: 90% HIV inhibition; for Overall Result: two-drug combination with Compound 1, all ratios and effect levels, MT-2/HIV-1 LAI, MTS assay. As to the method:
as §1, §2, §3, §4, §5, §6, §7, §8

[3] abbreviates: combination with Compound 1, EC50 ratio 1:1.
[4] abbreviates: combination with Compound 1, EC50 ratio 1:2.5.
The mark [5] stands for this setting: combination with Compound 1, EC50 ratio 2.5:1.

Regarding `CCO/N=C(\c1ccc(Br)cc1)C1CCN(C2(C)CCN(C(=O)c3c(C)cc[n+]([O-])c3C)CC2)CC1` [Sch-C], in the data set on HIV-1 Bal (setting [3]), the “Combination Indices at % HIV Inhibition (Confidence Interval) 50%” value is 0.63 (0.51, 0.74); the “Combination Indices at % HIV Inhibition (Confidence Interval) 75%” value is listed as 0.70 (0.52, 0.89); the “Combination Indices at % HIV Inhibition (Confidence Interval) 90%” value is listed as 0.80 (0.46, 1.13). In addition, in the data set with HIV-1 Bal (setting [4]), the “Combination Indices at % HIV Inhibition (Confidence Interval) 50%” value is listed as 0.49 (0.41, 0.58); the “Combination Indices at % HIV Inhibition (Confidence Interval) 75%” value is on record as 0.65 (0.49, 0.80); the “Combination Indices at % HIV Inhibition (Confidence Interval) 90%” value is 0.86 (0.52, 1.19). For the same compound, in the data set on HIV-1 Bal (setting [5]), the “Combination Indices at % HIV Inhibition (Confidence Interval) 50%” value is 0.24 (0.19, 0.28); the “Combination Indices at % HIV Inhibition (Confidence Interval) 75%” value is reported as 0.36 (0.27, 0.45); the “Combination Indices at % HIV Inhibition (Confidence Interval) 90%” value is listed as 0.55 (0.31, 0.79). In addition, in the data set on HIV-1 Bal, the EC50 is 3 nM and the “Overall Result” value is on record as “moderate synergistic to synergistic”.
As to enfuvirtide, the “Combination Indices at % HIV Inhibition (Confidence Interval) 50%” value in the data set with HIV-1 LAI [1] (combination with Compound 1, EC50 ratio 1:1 (Compound 1:comparator)) is 0.53 (0.46, 0.59); in the data set on HIV-1 LAI [1] (setting [4]) it was 0.27 (0.21, 0.32); in the data set on HIV-1 LAI [1] (setting [5]), 0.41 (0.30, 0.51). For the same compound, the “Combination Indices at % HIV Inhibition (Confidence Interval) 75%” value is listed as 0.51 (0.42, 0.59) with HIV-1 LAI [1] (setting [3]); 0.32 (0.22, 0.42) in the data set on HIV-1 LAI [1] (setting [4]); 0.57 (0.37, 0.78) in the data set on HIV-1 LAI [1] (setting [5]). For the same compound, the “Combination Indices at % HIV Inhibition (Confidence Interval) 90%” value in the data set on HIV-1 LAI [1] (setting [3]) is given as 0.57 (0.42, 0.72); in the data set on HIV-1 LAI [1] (setting [4]), 0.43 (0.22, 0.64); in the data set with HIV-1 LAI [1] (setting [5]), 0.90 (0.36, 1.44). Besides, the EC50 in the data set on HIV-1 LAI [1] (single drug, MT-2 cells, HIV-1 LAI, MOI 0.005, 5 days, RT assay) worked out at 3 nM. Also, in the data set on uninfected cells, the “cytotoxicity of the drug combination” value is reported as “No significant cytotoxicity”.
In the case of `COC[C@@H](c1ccc(C(F)(F)F)cc1)N1CCN(C2(C)CCN(C(=O)c3c(C)ncnc3C)CC2)C[C@@H]1C` [Sch-D], in the data set on HIV-1 Bal (setting [3]), the “Combination Indices at % HIV Inhibition (Confidence Interval) 50%” value is 0.49 (0.43, 0.55); the “Combination Indices at % HIV Inhibition (Confidence Interval) 75%” value was 0.41 (0.34, 0.49); the “Combination Indices at % HIV Inhibition (Confidence Interval) 90%” value is reported as 0.36 (0.26, 0.46). In addition, in the data set on HIV-1 Bal (setting [4]), the “Combination Indices at % HIV Inhibition (Confidence Interval) 50%” value is reported as 0.71 (0.62, 0.81); the “Combination Indices at % HIV Inhibition (Confidence Interval) 75%” value is 0.55 (0.44, 0.65); the “Combination Indices at % HIV Inhibition (Confidence Interval) 90%” value was 0.44 (0.31, 0.57). In addition, in the data set on HIV-1 Bal (setting [5]), the “Combination Indices at % HIV Inhibition (Confidence Interval) 50%” value was 0.51 (0.45, 0.56); the “Combination Indices at % HIV Inhibition (Confidence Interval) 75%” value was 0.55 (0.47, 0.63); the “Combination Indices at % HIV Inhibition (Confidence Interval) 90%” value is recorded as 0.61 (0.46, 0.75). In addition, in the data set with HIV-1 Bal, the EC50 came to 0.5 nM and the “Overall Result” value is recorded as “moderate synergistic to synergistic”.
As for `O=C1Nc2ccc(Cl)cc2[C@@](C#CC2CC2)(C(F)(F)F)O1` [Efavirenz, efavirenz], the EC50 in the data set on HIV-1 LAI [2] (Human immunodeficiency virus 1, MT2, 120 h, single drug, MT-2 cells, HIV-1 LAI, MOI 0.005, 5 days, MTS assay (non-nucleoside RT inhibitors)) turned out to be 0.06 nM. The “Combination Indices at % HIV Inhibition (Confidence Interval) 50%” value with HIV-1 LAI [2] (setting [3]) is on record as 0.71 (0.50, 0.91); with HIV-1 LAI [2] (setting [4]), 0.23 (0.17, 0.29); in the data set with HIV-1 LAI [2] (setting [5]), 0.58 (0.45, 0.70). In addition, the “Combination Indices at % HIV Inhibition (Confidence Interval) 75%” value with HIV-1 LAI [2] (setting [3]) is listed as 0.64 (0.38, 0.90); with HIV-1 LAI [2] (setting [4]) it was 0.23 (0.17, 0.30); in the data set with HIV-1 LAI [2] (setting [5]) it was 0.47 (0.32, 0.61). Also, the “Combination Indices at % HIV Inhibition (Confidence Interval) 90%” value in the data set on HIV-1 LAI [2] (setting [3]) was 0.64 (0.22, 1.06); in the data set on HIV-1 LAI [2] (setting [4]), 0.25 (0.12, 0.38); in the data set on HIV-1 LAI [2] (setting [5]), 0.46 (0.23, 0.69). The “Overall Result” value in the data set with HIV-1 LAI [2] was “Synergistic”; in the data set on HIV-1 LAI [2] (listed as efavirenz) it was “strong synergistic effects”.
